Data as given in US20230233569A1 (Revolution Medicines, Inc., priority 2020, published 2023).
Where two headings read alike, the source gives them in different places.

Key:
[1] = molecular target: NRAS G12C (Homo sapiens, UniProt P01111+P62937, G12C); test: Disruption of BRAF RBD interaction with Ras (FRET / MOA assay, with Cyclophilin A); assay type: biochemical; conditions: NRAS G12C; read-out: NRAS G12C FRET data IC50
Description: (§1) This protocol may also be executed substituting other Ras proteins or nucleotides.
(§2) The purpose of this biochemical assay was to measure the ability of test compounds to facilitate ternary complex formation between a nucleotide-loaded K-Ras isoform and Cyclophilin A; the resulting ternary complex disrupts binding to a BRAF^RBD construct, inhibiting K-Ras signaling through a RAF effector. Data is reported as IC50 values.
(§3) Compound was present in plate wells as a 10-point 3-fold dilution series starting at a final concentration of 30 μM. After incubation at 25° C. for 3 hours, a mixture of Anti-His Eu-W1024 and anti-GST allophycocyanin was then added to assay sample wells at final concentrations of 10 nM and 50 nM, respectively, and the reaction incubated for an additional 1.5 hours. […] Compounds that facilitate disruption of a K-Ras:RAF complex were identified as those eliciting a decrease in the TR-FRET ratio relative to DMSO control wells.
as §2, with “BRAF^RBDD” for “BRAF^RBD”

[2] = molecular target: KRAS G13C (Homo sapiens, UniProt P01116+P62937, G13C); test: as above; assay type: biochemical
Sequence of KRAS G13C (P01116 1-169 isoform P01116-2 G13C): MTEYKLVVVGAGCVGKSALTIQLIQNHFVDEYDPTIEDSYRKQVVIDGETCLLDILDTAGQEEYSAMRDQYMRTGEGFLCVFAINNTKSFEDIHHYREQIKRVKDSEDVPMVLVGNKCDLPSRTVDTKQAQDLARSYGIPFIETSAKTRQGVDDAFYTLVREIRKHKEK
Sequence of KRAS G13C (P62937 whole entry): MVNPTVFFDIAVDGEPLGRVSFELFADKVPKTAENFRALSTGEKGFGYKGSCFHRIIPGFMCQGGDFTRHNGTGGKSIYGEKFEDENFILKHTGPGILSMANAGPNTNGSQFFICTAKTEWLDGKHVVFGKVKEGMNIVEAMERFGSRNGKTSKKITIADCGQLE
Description: as §1, §2, §3
as §2, with “BRAF^RBDD” for “BRAF^RBD”

[3] = molecular target: KRAS G12C (Homo sapiens, UniProt P01116+P62937, G12C); test: as above; assay type: biochemical
Sequence of KRAS G12C (P01116 1-169 isoform P01116-2 G12C): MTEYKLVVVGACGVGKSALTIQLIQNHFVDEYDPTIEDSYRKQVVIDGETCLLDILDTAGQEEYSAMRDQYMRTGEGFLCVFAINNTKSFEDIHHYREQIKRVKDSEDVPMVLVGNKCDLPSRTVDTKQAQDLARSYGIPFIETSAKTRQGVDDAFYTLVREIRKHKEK
Sequence of KRAS G12C (P62937 whole entry): as the sequence (P62937 whole entry) above
Description: as §1, §2, §3
as §2, with “BRAF^RBDD” for “BRAF^RBD”

[4] = molecular target: KRAS G12V (Homo sapiens, UniProt P01116+P62937, G12V); test: as above; assay type: biochemical; conditions: KRAS G12V; read-out: KRAS G12V FRET data IC50
Sequence of KRAS G12V (P01116 1-169 isoform P01116-2 G12V limits assumed): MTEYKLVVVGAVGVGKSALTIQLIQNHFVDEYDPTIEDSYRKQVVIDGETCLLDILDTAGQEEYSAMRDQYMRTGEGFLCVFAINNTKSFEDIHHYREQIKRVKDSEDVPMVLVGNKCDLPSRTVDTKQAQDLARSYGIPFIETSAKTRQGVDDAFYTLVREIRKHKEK
Sequence of KRAS G12V (P62937 whole entry): as the sequence (P62937 whole entry) above
Description: as §1, §2, §3
as §2, with “BRAF^RBDD” for “BRAF^RBD”

[5] = molecular target: KRAS G13D (Homo sapiens, UniProt P01116+P62937, G13D); test: as above; assay type: biochemical
Sequence of KRAS G13D (P01116 1-169 isoform P01116-2 G13D limits assumed): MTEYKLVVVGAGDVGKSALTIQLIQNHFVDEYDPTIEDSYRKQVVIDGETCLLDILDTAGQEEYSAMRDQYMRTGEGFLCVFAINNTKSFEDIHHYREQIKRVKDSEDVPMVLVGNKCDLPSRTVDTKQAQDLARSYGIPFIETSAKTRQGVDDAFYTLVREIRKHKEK
Sequence of KRAS G13D (P62937 whole entry): as the sequence (P62937 whole entry) above
Description: as §1, §2, §3
as §2, with “BRAF^RBDD” for “BRAF^RBD”

[6] = molecular target: KRAS G12S (Homo sapiens, UniProt P01116+P62937, G12S); test: as above; assay type: biochemical; conditions: read-out: KRAS G12S FRET data, IC50
Sequence of KRAS G12S (P01116 1-169 isoform P01116-2 G12S limits assumed): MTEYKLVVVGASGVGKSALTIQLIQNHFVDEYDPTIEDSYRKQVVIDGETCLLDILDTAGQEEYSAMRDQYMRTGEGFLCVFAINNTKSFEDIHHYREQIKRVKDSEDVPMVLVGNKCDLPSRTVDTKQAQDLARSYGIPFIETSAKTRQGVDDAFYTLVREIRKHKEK
Sequence of KRAS G12S (P62937 whole entry): as the sequence (P62937 whole entry) above
Description: as §1, §2, §3
as §2, with “BRAF^RBDD” for “BRAF^RBD”

[7] = molecular target: KRAS WT (Homo sapiens, UniProt P01116+P62937); test: as above; assay type: biochemical; conditions: KRAS WT; read-out: KRAS WT FRET data IC50
Sequence of KRAS WT (P01116 1-169 isoform P01116-2 limits assumed): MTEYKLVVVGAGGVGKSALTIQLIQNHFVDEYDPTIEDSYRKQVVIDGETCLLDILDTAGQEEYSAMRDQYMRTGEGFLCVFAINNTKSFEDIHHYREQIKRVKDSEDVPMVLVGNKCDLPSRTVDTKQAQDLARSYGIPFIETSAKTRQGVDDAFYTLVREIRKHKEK
Sequence of KRAS WT (P62937 whole entry): as the sequence (P62937 whole entry) above
Description: as §1, §2, §3
as §2, with “BRAF^RBDD” for “BRAF^RBD”

[8] = molecular target: KRAS G12D (Homo sapiens, UniProt P01116+P62937, G12D); test: as above; assay type: biochemical; conditions: read-out: KRAS G12D FRET data, IC50
Sequence of KRAS G12D (P01116 1-169 isoform P01116-2 G12D limits assumed): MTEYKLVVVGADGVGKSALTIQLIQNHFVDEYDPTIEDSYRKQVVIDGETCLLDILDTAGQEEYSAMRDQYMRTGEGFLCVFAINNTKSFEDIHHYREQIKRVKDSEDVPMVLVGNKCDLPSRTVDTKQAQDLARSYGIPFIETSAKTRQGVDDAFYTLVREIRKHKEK
Sequence of KRAS G12D (P62937 whole entry): as the sequence (P62937 whole entry) above
Description: as §1, §2, §3
as §2, with “BRAF^RBDD” for “BRAF^RBD”

[9] = tested on: NCI-H358 (K-Ras G12C); test: CellTiter-Glo cell viability assay, 5-day treatment; assay type: cell-based; conditions: Homo sapiens, NCI-H358, H358, K-Ras G12C; read-out: Additional H358 Cell Viability assay data (K-Ras G12C, IC50)
Protocol: Protocol: CellTiter-Glo® Cell Viability Assay
Note—The following protocol describes a procedure for monitoring cell viability of K-Ras mutant cancer cell lines in response to a compound of the invention. Other RAS isoforms may be employed, though the number of cells to be seeded will vary based on cell line used.
(§4) Test compounds (132.5 nL) were directly dispensed into the assay plates containing cells. […] On day 5, assay plates and their contents were equilibrated to room temperature for approximately 30 minutes. […] Luminescence was measured using the PerkinElmer Enspire. Data were normalized by the following: (Sample signal/Avg. DMSO)*100. The data were fit using a four-parameter logistic fit.
as §4, with “nl)” for “nL)”

[10] = read-out: KRAS G13C FRET data, IC50
[11] = read-out: KRAS G12C FRET data, IC50
[12] = KRAS G13D, read-out: KRAS G13D FRET data IC50
[13] = KRAS G13C, read-out: KRAS G13C FRET data IC50
[14] = KRAS G12C, read-out: KRAS G12C FRET data IC50

Sequence of NRAS G12C (P01111 whole entry G12C): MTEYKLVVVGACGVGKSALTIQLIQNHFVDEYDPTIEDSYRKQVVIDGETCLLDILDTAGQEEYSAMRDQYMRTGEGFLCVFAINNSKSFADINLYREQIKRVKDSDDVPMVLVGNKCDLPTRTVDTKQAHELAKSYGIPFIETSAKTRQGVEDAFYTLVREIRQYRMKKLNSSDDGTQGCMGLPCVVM
Sequence of NRAS G12C (P62937 whole entry): as the sequence (P62937 whole entry) above

IC50 ([5]; KRAS G13D FRET data IC50, KRAS G13D) [µM]	IC50 [9] [µM]	IC50 [2, 13] [µM]	IC50 [3, 14] [µM]	Structure (SMILES)	IC50 [1] [µM]	IC50 [2, 10] [µM]	IC50 [3, 11] [µM]	IC50 [4] [µM]	IC50 [5, 12] [µM]	IC50 [6] [µM]	IC50 [7] [µM]	IC50 [8] [µM]
> 10	–	–	–	CCn1c(-c2cccnc2[C@H](C)OC)c2c3cc(ccc31)-c1csc(n1)C[C@H](NC(=O)[C@H](C(C)C)N(C)C(=O)C1COC1)C(=O)N1CCC[C@H](N1)C(=O)OCC(C)(C)C2 [Example A245]	–	–	–	–	–	–	–	–
–	–	> 10	0.1 to 1	C=CC(=O)N1CC[C@H](C(=O)N(C)[C@H](C(=O)N[C@H]2Cc3nc(cs3)-c3ccc4c(c3)c(c(-c3cccnc3COC)n4CC)CC(C)(C)COC(=O)[C@@H]3CCCN(N3)C2=O)C(C)C)C1 [Example A094]	0.1 to 1	–	–	> 10	> 10	> 10	> 10	> 10

More lines, now with the values behind:

Structure (SMILES)	IC50 ([5]; KRAS G13D FRET data IC50, KRAS G13D) [µM]	IC50 [9] [µM]	IC50 [2, 13] [µM]	IC50 [3, 14] [µM]	IC50 [1] [µM]	IC50 [2, 10] [µM]	IC50 [3, 11] [µM]	IC50 [4] [µM]	IC50 [5, 12] [µM]	IC50 [6] [µM]	IC50 [7] [µM]	IC50 [8] [µM]
CCn1c(-c2cccnc2[C@H](C)OC)c2c3cc(ccc31)-c1cc(C#N)cc(c1)C[C@H](NC(=O)[C@H](C(C)C)N(C)C(C)=O)C(=O)N1CCC[C@H](N1)C(=O)OCC(C)(C)C2 (atropisomer, axis not shown) [Example A430]	–	–	–	–	> 10	> 10	> 10	> 10	> 10	> 10	> 10	> 10
CCn1c(-c2cccnc2[C@H](C)OC)c2c3cc(ccc31)-c1cc(O)cc(c1)C[C@H](NS(=O)(=O)N1CCN(C)CC1)C(=O)N1CCC[C@H](N1)C(=O)OCC(C)(C)C2 (racemic) [Example A193]	–	–	–	–	> 10	> 10	> 10	> 10	> 10	> 10	> 10	> 10
CCn1c(-c2cccnc2[C@H](C)OC)c2c3cc(ccc31)-c1csc(n1)C[C@H](NC(=O)[C@H](C(C)C)N(C)C(=O)N1CC3(CCCN(C)C3=O)C1)C(=O)N1CCC[C@H](N1)C(=O)OCC(C)(C)C2 [Example A453]	–	–	–	–	–	–	–	–	> 10	–	–	–
CCn1c(-c2cccnc2[C@H](C)OC)c2c3cc(ccc31)-c1cccc(c1)C[C@H](NC(=O)[C@H](C(C)C)N(C)C(=O)[C@H]1CCN(C(=O)/C=C/CN3CC(OC)C3)C1)C(=O)N1CCC[C@H](N1)C(=O)OCC(C)(C)C2 (atropisomer, axis not shown) [Example A204]	–	0.01 to 0.1	–	–	–	–	–	–	–	–	–	–
C=CC(=O)N1CC[C@H](C(=O)N(C)[C@H](C(=O)N[C@H]2C[C@H]3CN(CCO3)c3ccc4c(c3)c(c(-c3cccnc3[C@H](C)OC)n4CC)CC(C)(C)COC(=O)[C@@H]3CCCN(N3)C2=O)C(C)C)C1 (atropisomer, axis not shown) [Example A378]	–	0.1 to 1	–	–	–	–	–	–	–	–	–	–
CO[C@@H](C)c1ncccc1-c1c2c3cc(ccc3n1C)-c1csc(n1)C[C@H](NC(=O)[C@H](C(C)C)N(C)C(C)=O)C(=O)N1CCC[C@H](N1)C(=O)OCC(C)(C)C2 (racemic) [Example A103]	–	–	–	–	> 10	> 10	> 10	> 10	> 10	> 10	> 10	> 10
C=CC(=O)N1CC[C@H](C(=O)N(C)[C@H](C(=O)N[C@H]2Cc3cc(O)cc(c3)-c3ccc4c(c3)c(c(-c3cnccc3COC)n4CC)CC(C)(C)COC(=O)[C@@H]3CCCN(N3)C2=O)C(C)C)C1 [Examples A028]	–	–	0.1 to 1	0.01 to 0.1	–	–	–	0.01 to 0.1	0.1 to 1	0.01 to 0.1	0.1 to 1	0.1 to 1
